According to patent US11485732B2, “Compounds and uses thereof” (Foghorn Therapeutics Inc., priority 2020, dated 2022):

What was measured:
[1] = biological target: BRM (Homo sapiens, UniProt P51531); assay: biochemical
[2] = tested on: Uveal melanoma cell lines (92-1, MEL202, MP41, MP38, MP46), prostate cancer cells (22RV1), acute leukemia cells (EOL1, THP1), and histocytic lymphoma cells …; assay: 3-day growth inhibition, Cell-titer glow, all cell lines (Example 17); type: cell-based; conditions: 0 to 2 μM (uveal melanoma) or 0 to 1 μM (other cell lines), 3 days
[3] = tested on: 92-1 uveal melanoma cells; assay: Uveal melanoma tumor growth inhibition in vivo (Example 18); set-up: species or system Nude mice; conditions: once daily oral gavage, increasing doses, 3 weeks
[4] = Body weight change of tumor-bearing mice (Example 18); type: in vivo; conditions: all treatments, once daily oral gavage, 3 weeks
[5] = tested on: PKC inhibitor (PKCi)-resistant MP41 uveal melanoma cells; assay: 7-day growth inhibition assay, PKC inhibitor-resistant cells (Example 14)
[6] = tested on: Uveal melanoma cell lines (92-1, MP41, MP38, MP46) and non-small cell lung cancer cells (NCIH1299); assay: 3-day growth inhibition, Cell-titer glow (Example 12); type: cell-based; conditions: 0 to 10 μM, 3 days
[7] = tested on: parental MP41 cells; assay: 7-day growth inhibition assay, parental cells (Example 14)
[8] = tested on: uveal melanoma, hematologic cancer, prostate cancer, breast cancer, and Ewing's sarcoma cell lines versus the other tested cell lines; conditions: 0 to 10 μM; day 3 and day 7
[9] = Body weight change of tumor-bearing mice (Example 16); type: in vivo; conditions: all treatments, once daily oral gavage, 3 weeks
[10] = tested on: uveal melanoma and hematologic cancer cell lines versus the other tested cell lines; assay: Growth of uveal melanoma, hematological and other cancer cell lines, day 3 and day 7, Cell-titer glo (Example 7); type: cell-based

Chain of BRM (P51531 whole entry): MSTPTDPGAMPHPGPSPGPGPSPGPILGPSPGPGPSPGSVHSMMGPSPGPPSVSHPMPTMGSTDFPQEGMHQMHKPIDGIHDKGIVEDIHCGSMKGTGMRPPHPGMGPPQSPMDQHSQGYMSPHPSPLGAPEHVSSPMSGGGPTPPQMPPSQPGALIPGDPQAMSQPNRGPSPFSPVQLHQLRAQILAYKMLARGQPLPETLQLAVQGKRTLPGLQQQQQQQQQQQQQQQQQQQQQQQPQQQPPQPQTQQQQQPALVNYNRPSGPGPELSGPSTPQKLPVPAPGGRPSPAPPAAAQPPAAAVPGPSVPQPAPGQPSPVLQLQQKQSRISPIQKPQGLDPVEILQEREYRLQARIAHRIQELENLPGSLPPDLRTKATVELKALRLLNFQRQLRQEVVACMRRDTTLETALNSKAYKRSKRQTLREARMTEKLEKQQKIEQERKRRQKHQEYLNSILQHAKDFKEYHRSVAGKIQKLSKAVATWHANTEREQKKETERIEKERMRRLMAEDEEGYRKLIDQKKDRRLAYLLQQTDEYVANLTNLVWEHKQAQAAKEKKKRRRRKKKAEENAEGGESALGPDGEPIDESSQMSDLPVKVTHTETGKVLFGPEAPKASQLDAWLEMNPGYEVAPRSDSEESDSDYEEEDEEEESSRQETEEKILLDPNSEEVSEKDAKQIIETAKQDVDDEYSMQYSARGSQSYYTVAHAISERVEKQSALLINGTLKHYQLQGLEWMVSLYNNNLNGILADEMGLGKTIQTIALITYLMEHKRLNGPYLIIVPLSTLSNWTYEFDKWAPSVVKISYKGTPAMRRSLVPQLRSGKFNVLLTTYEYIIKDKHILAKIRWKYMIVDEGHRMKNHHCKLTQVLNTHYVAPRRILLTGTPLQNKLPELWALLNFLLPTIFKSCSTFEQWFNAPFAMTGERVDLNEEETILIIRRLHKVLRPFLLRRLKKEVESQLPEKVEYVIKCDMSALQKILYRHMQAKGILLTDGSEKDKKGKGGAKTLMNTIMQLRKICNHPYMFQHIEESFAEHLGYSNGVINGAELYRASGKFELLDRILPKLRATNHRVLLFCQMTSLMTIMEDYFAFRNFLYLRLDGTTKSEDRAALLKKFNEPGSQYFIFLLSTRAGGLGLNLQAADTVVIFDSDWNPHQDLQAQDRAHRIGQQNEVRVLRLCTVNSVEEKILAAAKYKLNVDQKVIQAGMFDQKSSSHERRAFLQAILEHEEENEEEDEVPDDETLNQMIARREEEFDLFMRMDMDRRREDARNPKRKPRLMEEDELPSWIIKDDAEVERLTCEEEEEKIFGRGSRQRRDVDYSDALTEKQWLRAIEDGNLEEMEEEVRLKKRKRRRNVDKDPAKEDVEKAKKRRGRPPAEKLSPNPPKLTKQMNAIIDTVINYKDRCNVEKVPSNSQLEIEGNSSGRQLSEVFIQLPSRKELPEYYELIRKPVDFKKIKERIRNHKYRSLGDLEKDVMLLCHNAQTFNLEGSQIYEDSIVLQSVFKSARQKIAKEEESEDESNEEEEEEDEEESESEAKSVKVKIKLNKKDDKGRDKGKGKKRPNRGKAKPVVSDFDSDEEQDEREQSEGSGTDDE

Which IC50 [1] does the source give for `COC[C@H](NC(=O)c1ccn(S(C)(=O)=O)c1)C(=O)Nc1nc(-c2cccc(N3C[C@@H](C)O[C@@H](C)C3)n2)cs1` [N—((S)-1-((4-(6-(cis-2,6-dimethylmorpholino)pyridin-2-yl)thiazol-2-yl)amino)-3-methoxy-1-oxopropan-2-yl)-1-(methylsulfonyl)-1H-pyrrole-3-carboxamide] here?
The IC50 was 3.9 nM.

And the “growth inhibition (FIG. 14)” value [2]?
Its value is “potent growth inhibition in all the cell lines”.

What about the “tumor growth inhibition (FIG. 15)” value [3] of the same compound?
The value was “tumor growth inhibition in a dose-dependent manner”.

And the “tolerability based on % body weight change (FIG. 16)” value [4]?
The value was “well tolerated”.

Which IC50 [1] does the source give for `[2H]C([2H])([2H])OC([2H])([2H])[C@H](NC(=O)c1ccn(S(C)(=O)=O)c1)C(=O)Nc1nc(-c2cccc(N3C[C@@H](C)O[C@@H](C)C3)n2)cs1` [N—((S)-1-((4-(6-(cis-2,6-dimethylmorpholino)pyridin-2-yl)thiazol-2-yl)amino)-3-(methoxy-d3)-1-oxopropan-2-yl-3,3-d2)-1-(methylsulfonyl)-1H-pyrrole-3-carboxamide] here?
Its IC50 is 4.6 nM.

For `CC1(N)CCN(c2cccnc2NC(=O)c2nc(-c3ncccc3C(F)(F)F)cnc2N)CC1` [LXS196], which “sensitivity of PKCi-resistant cells relative to parental MP41 cells (FIG. 9, FIG. 10)” value [5] is on record?
Its value is “could tolerate growth at higher concentrations of LXS196 than could the parental MP41 cell line”.

Which results are given for `CSCC[C@H](NC(=O)c1ccn(S(C)(=O)=O)c1)C(=O)Nc1nc(-c2cccc(-c3ccncc3)c2)cs1` [Compound B]?
growth inhibition (FIG. 6) [6]: potent growth inhibition in the cell lines; growth inhibition, parental MP41 cell line (FIG. 10) [7]: strong growth inhibition; sensitivity of cell lines to growth inhibition (FIG. 4) [8]: more sensitive to BRG1/BRM inhibition than the other tested cell lines

With `C[C@@H]1CN(c2cccc(-c3csc(NC(=O)CNC(=O)c4ccn(C(C)(C)C)c4)n3)n2)C[C@H](C)O1` [Compound C] as the compound, how does the “tolerability, body weight change (FIG. 13)” value [9] read?
The value was “well tolerated with no body weight loss observed”.

What does the source list for `CSCC[C@H](NC(=O)c1ccc(N)cc1)C(=O)Nc1nc(-c2cccc(-c3ccncc3)c2)cs1` [Compound A]?
sensitivity of cell lines to growth inhibition (GI50, FIG. 1) ([10]; 0 to 10 μM, day 3 and day 7): more sensitive to BRG1/BRM inhibition than the other tested cell lines; duration of growth inhibition ([10]; uveal melanoma and hematologic cancer cell lines): maintained through day 7

With `[2H]C([2H])([2H])OC([2H])([2H])[C@@H](NC(=O)c1ccn(S(C)(=O)=O)c1)C(=O)Nc1nc(-c2cccc(N3C[C@@H](C)O[C@@H](C)C3)n2)cs1` [N—((R)-1-((4-(6-(cis-2,6-dimethylmorpholino)pyridin-2-yl)thiazol-2-yl)amino)-3-(methoxy-d3)-1-oxopropan-2-yl-3,3-d2)-1-(methylsulfonyl)-1H-pyrrole-3-carboxamide] as the compound, how does the IC50 [1] read?
The IC50 was 443 nM.
